Laboratory results: US12103914B2, “Compositions of biologically active menaquinol derivatives and methods of treatment” (Epizon Pharma, Inc., priority 2020, dated 2024)

Tested on: vascular calcification and tissue calcification in patient with moderate calciphylaxis
Test: Treatment of patients diagnosed with moderate calciphylaxis (case examples)
Format: in vivo, human
Procedure: This example describes the administration of the disclosed compounds to subjects diagnosed with calciphylaxis. Typical symptoms include presentation of characteristic painful skin lesions (Nigwekar et al. (2015) Calciphylaxis: Risk Factors, Diagnosis, and Treatment. Am. J. Kidney Dis. 66:133-46). Definitive diagnosis of calciphylaxis is achieved via skin biopsy. Further conditions need to be considered for correct diagnosis.
The dosage form is a 5 mg, 10 mg, 25 mg, 50 mg or 100 mg soft-gel capsule. Two 50 mg capsules are administered once daily to the 100 mg dosage cohort. […]

| Substance | reduction in tissue calcification (45 kg patient, 20 mg, 10 weeks) [%] | reduction in vascular calcification (suggested by change in examined biomarker levels) (45 kg patient, 20 mg, 10 weeks) [%] | reduction in tissue calcification (65 kg patient, 100 mg, 8 weeks) [%] | reduction in vascular calcification (suggested by change in examined biomarker levels) (65 kg patient, 100 mg, 8 weeks) [%] | reduction in tissue calcification (70 kg patient, 50 mg, 3 months) [%] | reduction in vascular calcification (suggested by change in examined biomarker levels) (70 kg patient, 50 mg, 3 months) [%] |
| --- | --- | --- | --- | --- | --- | --- |
| Calcium salt of Menaquinol-7 | 15 | ~20 | 10 | ~10 | – | – |
| Potassium salt of Menaquinol-7 | – | – | – | – | 20 | ~25 |
